Results: patent publication US8399106B2, “Composition and method for treating wood” (Kemira OyJ, priority 2007, dated 2013)

Columns and labels:
[1] = wood treated only with a chelating agent; as described in WO 0123154; cited from earlier work
[2] = test system: Aureobasidium pullulans and Sclerophoma pithyophila (pooled suspension); conditions: literature reference, 1.0% of NHA; cited from earlier work
rot fungi = experiment: Rot resistance / wood protection class (EN 350-1), fungus not specified; assay type: cell-based; conditions: treated wood
Method: Rot testing was carried out according to the EN 113 standard. 10 test samples impregnated with respective agents for each of the three rot fungi were used in the test. A sample made of surface wood of pine was placed as a control with the impregnated test samples to the same container for the rot test. Activity of each fungus was tested with eight test samples (so-called infection test). Said test samples for the fungus activity testing were placed in respective containers for the rot test without impregnated test samples.
In the method, an X value was calculated for each impregnation batch and for each fungus, said X value describing the ratio of the mass loss of the impregnated test samples to that of the unimpregnated control samples. X value was calculated by dividing the corrected mass loss of the impregnated test samples by that of the unimpregnated control samples. The calculation was based on mean values. Based on the result obtained, the rot resistance class was determined as follows for the fungus with the highest rot activity:

O=C(O)CN(CCN(CC(=O)O)CC(=O)O)CC(=O)O [EDTA, ethylenediaminetetraacetic acid]
amounts washed out of wood, in words [1]: so high

O=C1c2cccc3cccc(c23)C(=O)N1O [NHA, N,N-naphthaloylhydroxylamine]
Microbial growth 0 to 5 [2]: 4 (high amounts of microbial growth (more than 40% of the surface of the test sample covered by microbial growth))

O=C[O-].O=C[O-].[Ca+2] [calcium formate]
wood protection class (rot protection standard EN 350-1, classes 1-5) (rot fungi): 3 (Class 3=reasonably resistant 0.30<X≦0.60)
